Data: patent publication EP0400609A1, “Intravenous solutions with quick action onset” (CIBA-GEIGY AG, priority 1989, dated 1990)
Like-named read-outs stand apart in the source and are kept apart here.

Legend:
[1] = tested on: Tonische Konvulsionen der Hinterextremitäten; assay: Maximal electroshock test in mice; format: in vivo, Mäuse; conditions: for ED50: Mus musculus
Source text: Die akute Schutzwirkung von Carbamazepin nach intravenöser Verabreichung im Vergleich zur oralen wurde mit Hilfe des maximalen Elektroschocks ermittelt. Die folgenden Methoden wurden verwendet: - Elektroschock Test an Ratten: Tonische Konvulsionen […] durch Verabreichung eines Wechselstroms von 50 Hz und 36 mA während 0,63 Sekunden mit Hilfe von Cornealelektroden ausgelöst. Es wurden 10 Ratten pro Dosis und Zeiteinheit verwendet; eine Gruppe diente als Kontrolle. Die Anzahl der Ratten, die keine tonische Konvulsion […], wurde für jede Gruppe bestimmt. Die ED50 wurde mit Hilfe der Regressionsanalyse nach der Methode von Spearman und Kärber berechnet. - Elektroschock Test an Mäusen: Tonische Konvulsionen […] durch Verabreichung eines Wechselstromes von 50 Hz und 18 […] jede Dosis und Zeiteinheit wurden 10 Mäuse verwendet; eine Gruppe diente als Kontrolle. Die Anzahl der Mäuse, die keine tonische Konvulsion […], wurde für jede Gruppe bestimmt. Die ED50 wurde mit Hilfe der Regressionsanalyse nach der Methode von Spearman und Kärber bestimmt.

[2] = tested on: Tonische Konvulsionen der Kinterextremitäten; assay: Maximal electroshock test in rats; format: in vivo, Ratten; conditions: for ED50: Rattus norvegicus
Source text: Die akute Schutzwirkung von Carbamazepin nach intravenöser Verabreichung im Vergleich zur oralen wurde mit Hilfe des maximalen Elektroschocks ermittelt. Die folgenden Methoden wurden verwendet: - Elektroschock Test an Ratten: Tonische Konvulsionen der Kinterextremitäten wurden durch Verabreichung eines Wechselstroms von 50 Hz und 36 mA während 0,63 Sekunden mit Hilfe von Cornealelektroden ausgelöst. Es wurden 10 Ratten pro Dosis und Zeiteinheit verwendet; eine Gruppe diente als Kontrolle. Die Anzahl der Ratten, die keine tonische Konvulsion der Hinterextremitäten aufwiesen, wurde für jede Gruppe bestimmt. Die ED₅₀ wurde mit Hilfe der Regressionsanalyse nach der Methode von Spearman und Kärber berechnet. - Elektroschock Test an Mäusen: Tonische Konvulsionen der Hinterextremitäten wurden durch Verabreichung eines Wechselstromes von 50 Hz und 18 mA während 0,2 Sekunden mittels Cornealelektroden ausgelöst. Für jede Dosis und Zeiteinheit wurden 10 Mäuse verwendet; eine Gruppe diente als Kontrolle. Die Anzahl der Mäuse, die keine tonische Konvulsion der Hinterextremitäten zeigten, wurde für jede Gruppe bestimmt. Die ED₅₀ wurde mit Hilfe der Regressionsanalyse nach der Methode von Spearman und Kärber bestimmt.

[3] = Dissolution of dry preparations in water; format: physicochemical; conditions: without aids, at 20°C
Method: Die unter den Nummern 14 bis 17 hergestellten Trockenpräparate lösen sich ohne Hilfsmittel in weniger als einer Minute bei 20°C in Wasser, während sich mikrokristallisiertes Carbamazepin unter den gleichen Bedingungen nicht löst.

Question: For `NC(=O)N1c2ccccc2C=Cc2ccccc21` [Carbamazepin, 5H-Dibenz[b,f]azepin-5-carboxamid], which ED50 ([1]; 2.5 min, intravenous, 2,5 min after dosing, read-out: ED₅₀ in mg/kg intravenös Mäuse) is on record?
Answer: The ED50 was 5.4 mg/kg.

Question: What about the ED50 ([1]; 5 min, intravenous, 5 min after dosing, read-out: ED₅₀ in mg/kg intravenös Mäuse) of the same compound?
Answer: The ED50 was 6.2 mg/kg.

Question: And the ED50 ([1]; 5 min, oral, 5 min after dosing, read-out: ED₅₀ in mg/kg oral Mäuse)?
Answer: The ED50 was 22.7 mg/kg.

Question: And the ED50 ([1]; 0.25 h, intravenous, 15 min after dosing, read-out: ED₅₀ in mg/kg intravenös Mäuse)?
Answer: The ED50 was 5.4 mg/kg.

Question: And the ED50 ([1]; 0.25 h, oral, 15 min after dosing, read-out: ED₅₀ in mg/kg oral Mäuse)?
Answer: The ED50 was 22.3 mg/kg.

Question: And the ED50 ([1]; 0.5 h, intravenous, 30 min after dosing, read-out: ED₅₀ in mg/kg intravenös Mäuse)?
Answer: Its ED50 is 6.2 mg/kg.

Question: What about the ED50 ([1]; 0.5 h, oral, 30 min after dosing, read-out: ED₅₀ in mg/kg oral Mäuse) of the same compound?
Answer: Its ED50 is 10.7 mg/kg.

Question: What about the ED50 ([1]; 1 h, intravenous, 60 min after dosing, read-out: ED₅₀ in mg/kg intravenös Mäuse) of the same compound?
Answer: Its ED50 is 9.3 mg/kg.

Question: And the ED50 ([1]; 1 h, oral, 60 min after dosing, read-out: ED₅₀ in mg/kg oral Mäuse)?
Answer: The ED50 was 13 mg/kg.

Question: And the ED50 ([1]; 2 h, intravenous, 120 min after dosing, read-out: ED₅₀ in mg/kg intravenös Mäuse)?
Answer: Its ED50 is 15.8 mg/kg.

Question: What about the ED50 ([1]; 2 h, oral, 120 min after dosing, read-out: ED₅₀ in mg/kg oral Mäuse) of the same compound?
Answer: The ED50 was 27 mg/kg.

Question: What about the ED50 ([1]; 4 h, intravenous, 240 min after dosing, read-out: ED₅₀ in mg/kg in Mäuse) of the same compound?
Answer: The ED50 was > 20 mg/kg.

Question: And the “Schutzwirkung, % bei 60, oral Mäuse” value ([1]; oral, 2,5 min after dosing, at 60 (column unit mg/kg), printed in place of an ED₅₀)?
Answer: The value was 10 % bei 60.

Question: And the ED50 ([2]; 2.5 min, intravenous, 2,5 min after dosing, read-out: ED₅₀ in mg/kg intravenös Ratten)?
Answer: Its ED50 is 1.9 mg/kg.

Question: And the ED50 ([2]; 2.5 min, oral, 2,5 min after dosing, read-out: ED₅₀ in mg/kg oral Ratten)?
Answer: The ED50 was > 60 mg/kg.

Question: And the ED50 ([2]; 5 min, intravenous, 5 min after dosing, read-out: ED₅₀ in mg/kg intravenös Ratten)?
Answer: Its ED50 is 1.6 mg/kg.

Question: And the ED50 ([2]; 5 min, oral, 5 min after dosing, read-out: ED₅₀ in mg/kg oral Ratten)?
Answer: Its ED50 is 60 mg/kg.

Question: And the ED50 ([2]; 0.25 h, intravenous, 15 min after dosing, read-out: ED₅₀ in mg/kg intravenös Ratten)?
Answer: Its ED50 is 2.5 mg/kg.

Question: What about the ED50 ([2]; 0.25 h, oral, 15 min after dosing, read-out: ED₅₀ in mg/kg oral Ratten) of the same compound?
Answer: The ED50 was 15.4 mg/kg.

Question: What about the ED50 ([2]; 0.5 h, intravenous, 30 min after dosing, read-out: ED₅₀ in mg/kg intravenös Ratten) of the same compound?
Answer: Its ED50 is 3 mg/kg.

Question: What about the ED50 ([2]; 0.5 h, oral, 30 min after dosing, read-out: ED₅₀ in mg/kg oral Ratten) of the same compound?
Answer: Its ED50 is 9.6 mg/kg.

Question: What about the ED50 ([2]; 1 h, intravenous, 60 min after dosing, read-out: ED₅₀ in mg/kg intravenös Ratten) of the same compound?
Answer: The ED50 was 2.5 mg/kg.

Question: What about the ED50 ([2]; 1 h, oral, 60 min after dosing, read-out: ED₅₀ in mg/kg oral Ratten) of the same compound?
Answer: The ED50 was 10 mg/kg.

Question: And the ED50 ([2]; 2 h, intravenous, 120 min after dosing, read-out: ED₅₀ in mg/kg intravenös Ratten)?
Answer: Its ED50 is 4 mg/kg.

Question: What about the ED50 ([2]; 2 h, oral, 120 min after dosing, read-out: ED₅₀ in mg/kg oral Ratten) of the same compound?
Answer: The ED50 was 12.5 mg/kg.

Question: And the “Schutzwirkung, % bei 10 mg/kg, Ratten” value ([2]; intravenous, 240 min after dosing, 10 mg/kg, printed in place of an ED₅₀)?
Answer: Its value is 40 % bei 10 mg/kg.

Question: What about the “Auflösung in Wasser” value [3] of the same compound?
Answer: The value was “nicht löst”.
